Reference: publication PMC3502156, “Anti-plasmodial action of de novo-designed, cationic, lysine-branched, amphipathic, helical peptides” (Malaria Journal, 2012)
Several values for one entry are separate records, joined by “and”; a condition that tells them apart may be missing. Identical values can stand only once. Like-named read-outs stand apart in the source and are kept apart here. Starred links: 1 amine or outer side, 2 acyl side, 3 side chain; linkers in the order of their positions; H or OH if unused. Positions of bridges follow the written chain, without caps; N, C: chain ends. Non-standard residues stand in square brackets, D forms with d. Residues, ends and D or L forms follow the SMILES beside them. Chains are numbered I, II in the order given. X1 = O=C(/C(=C/c1ccccc1)N[*:1])[*:2]

Assays:
[1] = system: uninfected erythrocytes (URBC); test: Haemolysis assay, uninfected red cells; format: cell-based, human; details: 3 h
Experimental: (§1) Selectivity of haemolysis by peptides for infected erythrocytes (PRBC) vs uninfected erythrocytes (URBC) was examined by incubating the test molecules with URBCs and PRBCs respectively in phosphate-buffered saline (PBS). Briefly, fresh RBCs were spin washed (1600 RPM; 5 min) three times in PBS and re-suspended in PBS at 2% haematocrit. A 100 μl suspension was added to 96-well plate containing the peptides at different concentrations. […] After incubation at 37°C for 3 hr, the samples were centrifuged and supernatant was used to determine the haemolytic activity measured in terms of haemoglobin release as monitored by […]. Triton-treated control samples were diluted 10-fold before reading absorbance. […] Percent haemolysis has been expressed with reference to 100% haemolysis value assigned to positive control (triton X 100 treated RBCs). To study haemolytic susceptibility of parasitized cells, URBCs were replaced with varying percentages (10% and 20%) of mixed stage parasitized cells. […] Haemolysis of parasitized erythrocytes was also monitored microscopically by examining the Giemsa-stained smears. Parasitaemia of ΔFd treated and untreated cultures were microscopically counted for ring, trophozoite and schizont stages respectively. Susceptibility of different stages was compared with corresponding untreated control cultures.

proteases = details: branched dimer compared with linear dimer (ΔFm)2; cited from earlier work
Source text: Some important features of these peptides as drugs against malaria include their favourable resistance indices (Table 1) that allow them to rapidly kill both drug-sensitive and drug-resistant strains of malaria parasite with equal potencies, their amphipathic nature that gives them drug-like character, and their ability to permeabilize and penetrate biological membranes, which allows them to attack target cells both from the surface as well as intracellularly. In addition, the presence of the conformationally constrained, non-protein, amino acid didehydrophenylalanine in both ΔFd and (ΔFm)2 pr ...

[2] = system: infected erythrocytes (PRBC); test: Haemolysis assay, parasitized red cells; format: cell-based, Plasmodium falciparum; details: 3 h
Experimental: as §1

[3] = system: P. falciparum 3D7 trophozoites; test: Immunofluorescence staining of MSP3 in ΔFd treated trophozoite cultures; format: cell-based, Plasmodium falciparum; details: ΔFd 2.5 μM, 37°C, 6 hr; three independent observations
Experimental: Immunohistochemical Fluorescence staining of MSP3 in ∆Fd treated Trophozoite and Schizont cultures.
To probe mechanistic details of ∆Fd-mediated, premature parasite egress, P. falciparum 3D7 culture (2%
parasitaemia, 2% haematocrit) was incubated without (control) or with ∆Fd (2.5 µM) at 37°C for 6 hr in a final
volume of 100 µl made with RPMI (96 µl RPMI + 4 µl peptide solution). Smears were processed as follows: (a)
flooded with 2% BSA/PBS (1 hr, 37°C), (b) PBS washed and (c) flooded (1 hr, 370C) with polyclonal anti-MSP3
antibody produced in mouse (1: 100 dilution in 1% BSA/PBS), (d) PBS washed and (e) flooded with alexa fluor 488
labelled anti-mouse antibody (Sigma) (1: 500 dilution in 1% BSA/PBS, 1 hr, 370C in dark), (e) PBS washed and (f)
flooded with DAPI (4, 6-diamidino-2-phenylindole) (invitrogen) (500 ng/ml, 10 min, 370 C). After a final PBS wash
the smears were observed under Nikon eclipse fluorescence microscope using appropriate filters.

[4] = system: P. falciparum 3D7 (chloroquine-sensitive); test: microbe, parasite or virus in culture; format: cell-based, Plasmodium falciparum
HeLa cells = format: cell-based; details: 48 h
Experimental: The cytotoxic effects of ΔFd on mammalian cells was assessed by functional assay as described using HeLa cells cultured in RPMI containing 10% fetal bovine serum, 0.21% sodium bicarbonate (Sigma) and 50 μg/mL gentamycin (complete medium). Briefly, cells (10^4 cells/200 μl/well) were seeded into 96-well flat-bottom tissue culture plates in complete medium. […] DMSO (as positive inhibitor) was added at 10%. Twenty microlitres of a stock solution of MTT (5 mg/mL in 1X phosphate buffered saline) was added to each well, gently mixed and incubated for another 4 hr. After spinning the plate at 1500 rpm for 5 min, supernatant was removed and 100 μl of DMSO (stop agent) was added. Formation of formazon was read on a microtiter plate reader (Versa max tunable multi-well plate reader) at 570 nm. The 50% cytotoxic concentration (TC50) of drug was determined by analysis of dose–response curves.

[5] = system: P. falciparum 3D7 (chloroquine-sensitive); test: microbe, parasite or virus in culture; format: cell-based, Plasmodium falciparum; remark: listed apart in the source
Experimental: (§2) Chloroquine-sensitive (3D7) and CQ-resistant (Dd2 and INDO) strains of P. falciparum were maintained in continuous culture according to the method of Trager and Jensen with minor modifications. Cultures were maintained in fresh group O^+ve human erythrocytes suspended at 4% haematocrit in complete medium {16.2 g/L RPMI 1640 containing 25 mM HEPES, 11.11 mM glucose (Gibco), 0.2% sodium bicarbonate (Sigma), 0.5% Albumax I (Gibco), 45 μg/litre hypoxanthine (Sigma) and 50 μg/litre gentamicin (Gibco)} and incubated at 37°C under a gas mixture 5% O2, 5% CO2, and 90% N2. Every day, the spent medium was replaced by fresh complete medium to propagate the culture. […] Parasitaemia was monitored by microscopic examination of Giemsa-stained blood smears. Synchronized ring stage parasite was obtained by 5% sorbitol treatment. Trophozoites and schizont-stage parasites were enriched by using Percoll gradient.
(§3) Stock solutions of peptides and CQ were prepared in water (milli-Q grade) while artemisinin stock solution was in dimethyl sulphoxide (DMSO). All stocks were then diluted with culture medium to achieve the required drug concentrations. The concentration of peptide solution in water was based on A280 [ϵ (M^-1 cm^-1) ΔF (didehydrophenylalanine) 19,000, W (Tryptophan) 5,000)]. Thus ϵ280 were 62,000, 124,000, 124,000 and 248,000 for ΔFm, (ΔFm)2, ΔFd and ΔFq respectively. The concentration of FITC-peptides was based on A495 [ϵ(M^-1 cm^-1) FITC 77,000 for (ΔFm)2 with one FITC and 154,000 for ΔFd with two FITC per molecule]. Drugs and peptides solutions were placed in 96-well flat bottom tissue culture grade plates (Corning).
(§4) For drug screening, SYBR green I based fluorescence assay was used as described previously by Smilkstein et al.[30]. Sorbitol synchronized ring stage parasites (haematocrit: 2%, parasitaemia: 1%, 100 μl) under normal culture conditions were incubated in the absence or presence of increasing concentrations of peptides in water. CQ and artemisinin were used as positive controls. […] After 48 hr of incubation 100 μl of SYBR Green I buffer [0.2 μl of 10,000 X SYBR Green I (Invitrogen) per ml of lysis buffer {Tris (20 mM; pH 7.5), EDTA (5 mM), saponin (0.008%; wt/vol), and Triton X-100 (0.08%; vol/vol)}] was added to each well, mixed twice gently with multi-channel pipette and incubated in dark at 37 °C for 1 h. Fluorescence was measured with a Victor fluorescence multi-well plate reader (Perkin Elmer) with excitation and emission wavelength centred at 485 and 530 nm, respectively. Fluorescence counts for CQ (0.1 μM for 3D7, 1 μM for INDO) were subtracted from counts in each well. The fluorescence counts were plotted against the drug concentration and IC50 (the 50% inhibitory concentration) was determined by analysis of dose–response curves. Results of the above mentioned fluorescence-based assay were validated microscopically by examination of Giemsa-stained smears of peptide-treated parasite cultures. Statistical significance of relative potencies of peptides was determined by student’s T test.

[6] = system: P. falciparum Dd2 (CQ-resistant); test: microbe, parasite or virus in culture; format: cell-based, Plasmodium falciparum; details: for Resistance index IC50 Dd2/ IC50 3D7: IC50 CQ resistant strain/ IC50 CQ sensitive strain
Experimental: as §2, §3, §4

[7] = system: P. falciparum INDO (CQ-resistant); test: microbe, parasite or virus in culture; format: cell-based; details: Plasmodium falciparum; ring stage synchronized, 48 hr, SYBR Green I fluorescence, medium with 10% human serum; ± SD of three independent observations
Experimental: as §2, with “Synchronized ring stage parasite was obtained by 5% sorbitol treatment. Trophozoites and schizont-stage parasites were enriched by using Percoll gradient.” left out
For drug screening, SYBR green I based fluorescence assay was used as described previously by Smilkstein et al.[30]. […] Fluorescence was measured with a Victor fluorescence multi-well plate reader (Perkin Elmer) with excitation and emission wavelength centred at 485 and 530 nm, respectively. Fluorescence counts for CQ (0.1 μM for 3D7, 1 μM for INDO) were subtracted from counts in each well. […] Results of the above mentioned fluorescence-based assay were validated microscopically by examination of Giemsa-stained smears of peptide-treated parasite cultures. Statistical significance of relative potencies of peptides was determined by student’s T test.

Structure (SMILES) | HC50 URBC [1] [µM] | Hemolytic Selectivity index (HC50 URBC/ IC50 Pf 3D7) [1] | stability against proteases (proteases) | percentage haemolysis, mixed culture 10% parasitaemia [2] [%] | percentage haemolysis, mixed culture 20% parasitaemia [2] [%] | anomalously egressed trophozoites with MSP3 staining [3] | increment in potency at 96 hr (two cycles) vs 48 hr (one cycle) ([4]; P. falciparum 3D7, SYBR Green assay) [fold] | IC70 ([4]; P. falciparum 3D7, dose used on trophozoite and schizont cultures) [nM] | TC50 HeLa cells (HeLa cells) [nM] | IC50 ([5]; 3D7 (chloroquine-sensitive, 48 h)) [nM] | IC50 ([6]; Dd2 (CQ-resistant, 48 h)) [nM] | Resistance index IC50 Dd2/ IC50 3D7 [6] | IC50 [7] [nM] | IC50 ([5]; Plasmodium falciparum, 3D7, ring stage synchronized, haematocrit 2%, parasitaemia 1%, 48 hr, SYBR Green I fluorescence, ± SD of three independent observations, read-out: IC50 P. falciparum 3D7) [nM] | IC50 ([6]; Plasmodium falciparum, DD2, ring stage synchronized, haematocrit 2%, parasitaemia 1%, 48 hr, SYBR Green I fluorescence, ± SD of three independent observations, read-out: IC50 P. falciparum Dd2) [nM]
CC(=O)NCC(=O)N/C(=C\c1ccccc1)C(=O)N[C@@H](CCCNC(=N)N)C(=O)N[C@@H](CCCCN)C(=O)N/C(=C\c1ccccc1)C(=O)N[C@@H](Cc1c[nH]cn1)C(=O)N[C@@H](CCCCN)C(=O)N/C(=C\c1ccccc1)C(=O)N[C@@H](Cc1c[nH]c2ccccc12)C(=O)N[C@@H](C)C(=O)NCCCC[C@H](NC(=O)[C@H](C)NC(=O)[C@H](Cc1c[nH]c2ccccc12)NC(=O)/C(=C/c1ccccc1)NC(=O)[C@H](CCCCN)NC(=O)[C@H](Cc1c[nH]cn1)NC(=O)/C(=C/c1ccccc1)NC(=O)[C@H](CCCCN)NC(=O)[C@H](CCCNC(=N)N)NC(=O)/C(=C/c1ccccc1)NC(=O)CNC(C)=O)C(N)=O [ΔFd] (I: Ac-G[X1]RK[X1]HK[X1]WAK-NH2 / II: Ac-G[X1]RK[X1]HK[X1]WA; amide I:11-II:C; N-terminus and C-terminus assumed) | > 50 | > 35 | more stable against proteases | 7 | 16 | ~ 40% | 1.1 | 2500 | > 25000 | 1390 ± 100 | 1600 ± 90 | 1.1 and ~ 1 |  |  | 
C[C@@H]1CC[C@H]2[C@@H](C)C(=O)O[C@@H]3O[C@@]4(C)CC[C@@H]1[C@]32OO4 [Artemisinin, reference compound] |  |  |  |  |  |  |  |  |  |  |  | 1 | 15 | 15 | 16
